{
  "source": "patent US20100150948A1",
  "about": "“MATERIALS AND METHODS FOR IMPROVED IMMUNOGLYCOPROTEINS” (TRUBION PHARMACEUTICALS, INC., priority 2006, published 2010)",
  "key": {"[1]": {"system": "CHO cells transfected with TRU-016", "test": "Effect of castanospermine concentration on cell viability, density and specific protein production of TRU-016", "format": "cell-based, Chinese hamster", "details": "for Viability at Harvest (%): harvest day 8, duplicate flasks, listed as CS", "protocol": "Prior to initiation of the experiments, CHO cells transfected with TRU-016 were grown in shake flasks in Ex-Cell™ 302 CHO serum-free media (SAFC Biosciences) supplemented with 1× non-essential amino acids (MediaTech), 1× sodium pyruvate (MediaTech), 4 mM L-glutamine (MediaTech), 500 nM methotrexate (MP Biomedicals) and 1 mg/L recombinant insulin (Recombulin—GIBCO/Invitrogen Corp.) at 37° C. and 5% carbon dioxide in a humidified incubator. A 200 mM stock concentration of castanospermine (Alexis Biochemicals) was prepared by dilution of the castanospermine in sterile, distilled/deionized water (MediaTech) and filtration through a 13 mm Acrodisc® with a 0.2 μm HT Tuffryn membrane (Pall Corporation). Stock solution was aliquoted into sterile, O-ringed, 0.5 mL microcentrifuge tubes (Fisherbrand, Fisher Scientific) and frozen at −20° C. Approximately 1 hour prior to initiation of experiments, needed aliquots were thawed at room temperature and the contents of each vial mixed well by vortexing.\nFor each experiment, cells in log phase growth were seeded in the above medium into a total volume of 60 mL in 250 mL shaker flasks at a density of 200,000 cells/mL and CS added at the concentration to be tested. Final CS concentrations of 800 μM, 400 μM, 200 μM, 100 μM, 50 μM, 25 μM and 0 μM were each tested in duplicate flasks. All cultures were incubated at 37° C. and 5% carbon dioxide in a humidified incubator and monitored at least every other day for viable cell density and overall cell viability.\nCultures were harvested on day 8 when overall cell viability was 50-70% (Expt. 1) and 30-50% (Expt. 2). Cells and cellular debris were removed by centrifugation in a Sorvall Super T21 at 3000 rpm for 20 minutes after which the supernatant was sterile filtered through a Millipore Steriflip unit with a 0.22 μm Millipore Express Plus membrane and stored at 2-8° C. until purification."}, "CD37": {"system": "CD37", "test": "Binding of TRU-016 to CD37 expressing Daudi cells", "set-up": "species or system human", "details": "CS 25-800 μM in culture", "protocol": "The cells are then incubated with a FITC-conjugated goat anti-human IgG Fc specific antibody (Caltag H 10501). This antibody will bind to the Fc region of the human IgG chain of TRU-016 bound to the cells. The antibody is diluted 1:50 in FACS buffer and 100 μL is added to each well. The plate is incubated at 4° C. in the dark for 45 minutes. Any unbound FITC-labeled antibody is removed by adding 100 μL of FACS buffer to each well, centrifuging at 250×g for 3 minutes at 15° C. followed by removal of supernatant. This is followed by a second wash with 200 μL/well FACS buffer. The cells are resuspended with 200 μL/well 2% paraformaldehyde and stored at 4° C. overnight. Each sample's bound fluorescence is measured on a BD FACSCalibur flow cytometry system and analyzed using Cell Quest Pro software (Becton Dickinson, ver 5.2). The GeoMean fluorescence intensity for each sample is plotted relative to the TRU-016 concentration. A dose response curve is generated and fit to a 4-parameter logistic (4-PL) curve using the SoftMax Pro software (Molecular Devices, ver 5.0.1). Titrations of TRU-016 are utilized to create a dose response curve of the untreated control and CS treated samples for comparison."}, "Ramos B cells": {"system": "Ramos B cells", "test": "CDC activity, propidium iodide flow cytometry with human serum", "format": "cell-based", "details": "TRU-016 from CHO cells cultured with 200 μM DMJ, 10 μM kifenunsine or 200 μM castanospermine", "protocol": "To determine the CDC activity of TRU-016 purified protein produced according to Example 2, Ramos B cells were suspended in Iscoves (Gibco/Invitrogen, Grand Island, N.Y.) at 5×10^5 cells/well in 75 μl. TRU-016 (75 μl) were added to the cells at twice the concentrations indicated. Binding reactions were allowed to proceed for 45 minutes prior to centrifugation and washing in serum-free Iscoves. Cells were resuspended in Iscoves with human serum (containing complement) at various concentrations. The cells were incubated 60 minutes at 37° C. Cells were washed by centrifugation and resuspended in staining media with 0.5 μg/ml propidium iodide. Samples were incubated 15 minutes at room temperature in the dark prior to analysis by flow cytometry using a FACsCalibur and CellQuest software (Becton Dickinson)."}},
  "note": "“And” between values parts separate entries of the source, which are not always exact repeats. Identical values can stand only once.",
  "data": [
    {"molecule": "O[C@H]1[C@H](O)[C@@H](O)CN2CC[C@H](O)[C@H]12", "note": "[castanospermine]", "values": [
      {"measurement": "reduction of TRU-016 protein production", "setting": "[1]; 400 μm CS", "result": "approximately 40%"},
      {"measurement": "Viability at Harvest (%)", "setting": "[1]; CS 25 μM", "result": "53.9% and 54.5%"},
      {"measurement": "Viability at Harvest (%)", "setting": "[1]; CS 50 μM", "result": "49.4% and 50.0%"},
      {"measurement": "Viability at Harvest (%)", "setting": "[1]; CS 100 μM", "result": "54.4% and 54.6%"},
      {"measurement": "Viability at Harvest (%)", "setting": "[1]; CS 200 μM", "result": "55.5% and 51.1%"},
      {"measurement": "Viability at Harvest (%)", "setting": "[1]; CS 400 μM", "result": "65.7% and 68.2%"},
      {"measurement": "Viability at Harvest (%)", "setting": "[1]; CS 800 μM", "result": "70.6% and 65.2%"},
      {"measurement": "cell viability and growth as indicated by integral cell area (ICA)", "setting": "[1]; CS 25-800 μM", "result": "did not appear to be significantly affected"},
      {"measurement": "immunoglycoprotein production", "setting": "[1]; increasing concentrations of castanospermine, 25-800 μM", "result": "appeared to reduce"},
      {"measurement": "dose response binding curves of TRU-016 to CD37 expressing cells, compared with untreated TRU-016 sample", "setting": "CD37", "result": "did not alter"}
    ]},
    {"molecule": "TRU-016: recombinant single chain protein (SMIP) that binds CD37; G28-1 binding domain, modified hinge, human IgG1 CH2 and CH3; SEQ ID NO: 2", "values": [
      {"measurement": "CDC compared with protein produced by untreated CHO cells", "setting": "Ramos B cells", "result": "similar"}
    ]}
  ]
}
